The test deals with Leukemia K562 cell. Nature of the test: Leukemia K562 cell proliferation/viability assay (CellTiterGlo, 48 hours). The format is cell-based. The arrangement: unit not given here. The note with it: K562 cells. As to the method: C-Abl is encoded by the ABL1 gene (NCBI Gene ID NO. 25). […] Assays for determining if a small molecule inhibits c-Abl activity are known. Non-limiting examples include cell proliferation assays using cancer cells that are BCR-Abl positive and depend on BCR-Abl for growth, such as the leukemia cell line K562. […] In some embodiments described herein, compounds are tested for ability to reduce K562 cell proliferation in an HTS adapted assay which measures cell viability using the reagent CellTiterGlo after 48 hours treatment.
Background: ATP-based viability assays read luminescence as a measure of living cells.
For the molecule `O=C(NCCO)c1cccc(-c2cc(Nc3ccc(OC(F)(F)F)cc3)ncn2)c1` [GNF-5], the Efficacy is given as −85.8.

Molecule `NC(=O)c1cccc(-c2ccc3c(c2)C(=O)Nc2cc(OC(F)(F)F)ccc2N3)c1` [NCGC00354777, 3-(11-Oxo-8-(trifluoromethoxy)-10,11-dihydro-5H-dibenzo[b,e][1,4]diazepin-2-yl)benzamide] displayed an Efficacy of −95.9.

As to `CS(=O)(=O)Nc1ccc(-c2ccc3c(c2)C(=O)Nc2cc(OC(F)(F)F)ccc2N3)cc1` [NCGC00355552, N-(4-(11-oxo-8-(trifluoromethoxy)-10,11-dihydro-5H-dibenzo[b,e][1,4]diazepin-2-yl)phenyl)methanesulfonamide], the Efficacy is on record as −86.3.

In turn, `O=C(NCCO)c1cccc(-c2ccc3c(c2)C(=O)Nc2cc(OC(F)(F)F)ccc2N3)c1` [NCGC00355556, N-(2-hydroxyethyl)-3-(11-oxo-8-(trifluoromethoxy)-10,11-dihydro-5H-dibenzo[b,e][1,4]diazepin-2-yl)benzamide] showed an Efficacy of −90.9.

The molecule `O=C(NCCN1CCOCC1)c1cccc(-c2ccc3c(c2)C(=O)Nc2cc(OC(F)(F)F)ccc2N3)c1` [NCGC00355557, N-(2-Morpholinoethyl)-3-(11-oxo-8-(trifluoromethoxy)-10,11-dihydro-5H-dibenzo[b,e][1,4]diazepin-2-yl)benzamide] gave an Efficacy of −91.1.

`O=C1Nc2cc(OC(F)(F)F)ccc2Nc2ccc(-c3cccc(C(=O)N4CCOCC4)c3)cc21` [NCGC00355558, 2-(3-(Morpholine-4-carbonyl)phenyl)-8-(trifluoromethoxy)-5,10-dihydro-11H-dibenzo[b,e][1,4]diazepin-11-one] displayed an Efficacy of −89.5.

`NCCNC(=O)c1cccc(-c2ccc3c(c2)C(=O)Nc2cc(OC(F)(F)F)ccc2N3)c1` [NCGC00355568, N-(2-Aminoethyl)-3-(11-oxo-8-(trifluoromethoxy)-10,11-dihydro-5H-dibenzo[b,e][1,4]diazepin-2-yl)benzamide] had an Efficacy of −81.4.

In turn, `O=C1Nc2cc(OC(F)(F)F)ccc2Nc2ccc(-c3cccc(C(=O)N4CCNCC4)c3)cc21` [NCGC00355569, 2-(3-(Piperazine-1-carbonyl)phenyl)-8-(trifluoromethoxy)-5,10-dihydro-11H-dibenzo[b,e][1,4]diazepin-11-one] registered an Efficacy of −97.3.

The molecule `CS(=O)(=O)Nc1cccc(-c2ccc3c(c2)C(=O)Nc2cc(OC(F)(F)F)ccc2O3)c1` [NCGC00356665, N-(3-(11-Oxo-8-(trifluoromethoxy)-10,11-dihydrodibenzo[b,f][1,4]oxazepin-2-yl)phenyl)methanesulfonamide] yielded an Efficacy of −83.8.

Molecule `CS(=O)(=O)Nc1ccc(-c2ccc3c(c2)C(=O)Nc2cc(OC(F)(F)F)ccc2O3)cc1` [NCGC00356666, N-(4-(11-Oxo-8-(trifluoromethoxy)-10,11-dihydrodibenzo[b,f][1,4]oxazepin-2-yl)phenyl)methanesulfonamide] registered an Efficacy of −79.9.

Consider `O=C(NCCO)c1cccc(-c2ccc3c(c2)C(=O)Nc2cc(OC(F)(F)F)ccc2O3)c1` [NCGC00356688, N-(2-Hydroxyethyl)-3-(11-oxo-8-(trifluoromethoxy)-10H-dihydrodibenzo[b,f][1,4]oxazepin-2-yl)benzamide], for which the Efficacy was −89.8.

Molecule `CN1CCN(C(=O)c2cccc(-c3ccc4c(c3)C(=O)Nc3cc(OC(F)(F)F)ccc3O4)c2)CC1` [NCGC00356690, 2-(3-(4-Methylpiperazine-1-carbonyl)phenyl)-8-(trifluoromethoxy)dibenzo[b,f][1,4]oxazepin-11(10H)-one] displayed an Efficacy of −121.9.

`O=C1Nc2cc(OC(F)(F)F)ccc2Oc2ccc(-c3cccc(C(=O)N4CCOCC4)c3)cc21` [NCGC00356745, 2-(3-(Morpholine-4-carbonyl)phenyl)-8-(trifluoromethoxy)dibenzo[b,f][1,4]oxazepin-11(10H)-one]: the Efficacy is −98.3.

`NC(=O)c1cccc(-c2ccc3c(c2)C(=O)Nc2cc(OC(F)(F)F)ccc2O3)c1` [NCGC00356842, 3-(11-Oxo-8-(trifluoromethoxy)-10,11-dihydrodibenzo[b,f][1,4]oxazepin-2-yl)benzamide] registered an Efficacy of −67.0.

Regarding `O=C1Nc2cc(OC(F)(F)F)ccc2Oc2ccc(-c3cccnc3)cc21` [NCGC00371308, 2-(Pyridin-3-yl)-8-(trifluoromethoxy)dibenzo[b,f][1,4]oxazepin-11(10H)-one], the Efficacy was −7.0.

The molecule `O=C1Nc2cc(OC(F)(F)F)ccc2Oc2ccc(-c3ccncc3)cc21` [NCGC00371309, 2-(Pyridin-4-yl)-8-(trifluoromethoxyl)dibenzo[b,f][1,4]oxazepin-11(10H)-one] registered an Efficacy of −77.6.

Molecule `O=C1Nc2cc(OC(F)(F)F)ccc2Oc2ccc(-c3cncnc3)cc21` [NCGC00371310, 2-(Pyrimidin-5-yl)-8-(trifluoromethoxy)dibenzo[b,f][1,4]oxazepin-11(10H)-one] came in with an Efficacy of −15.0.

For `NS(=O)(=O)c1cccc(-c2ccc3c(c2)C(=O)Nc2cc(OC(F)(F)F)ccc2O3)c1` [NCGC00371364, 3-(11-Oxo-8-(trifluoromethoxy)-10,11-dihydrodibenzo[b,f][1,4]oxazepin-2-yl)benzenesulfonamide], the Efficacy is reported as −94.9.

`CS(=O)(=O)Nc1cccc(-c2ccc3c(c2)CNc2cc(OC(F)(F)F)ccc2O3)c1` [NCGC00371644, N-(3-(8-(Trifluoromethoxy)-10,11-dihydrodibenzo[b,f][1,4]oxazepin-2-yl)phenyl)methanesulfonamide] registered an Efficacy of −90.7.

For the molecule `CN(C)S(=O)(=O)c1cccc(-c2ccc3c(c2)C(=O)Nc2cc(OC(F)(F)F)ccc2O3)c1` [NCGC00373057, N,N-Dimethyl-3-(11-oxo-8-(trifluoromethoxy)-10. I1-dihydrodibenzo[b,f][1,4]oxazepin-2-yl)benzenesulfonamide], the Efficacy is −85.1.

As for `O=C1Nc2cc(OC(F)(F)F)ccc2Oc2ccc(-c3ccc4[nH]ncc4c3)cc21` [NCGC00373058, 2-(1H-Indazol-5-yl)-8-(trifluoromethoxy)dibenzo[b,f][1,4]oxazepin-11(10H)-one], the Efficacy is reported as −74.3.

For the molecule `O=C1Nc2cc(OC(F)(F)F)ccc2Oc2ccc(-c3ccnc4[nH]ccc34)cc21` [NCGC00373059, 2-(1H-Pyrrolo[2,3-b]pyridin-4-yl)-8-(trifluoromethoxy)dibenzo[b,f][1.4]oxazepin-11(10H)-one], the Efficacy is −52.9.

Turning to `Nc1cc(-c2ccc3c(c2)C(=O)Nc2cc(OC(F)(F)F)ccc2O3)ccn1` [NCGC00373061, 2-(2-Aminopyridin-4-yl)-8-(trifluoromethoxy)dibenzo[b,f][1,4]oxazepin-11(10H)-one], the Efficacy is listed as −87.0.

Regarding `COc1ccc(-c2ccc3c(c2)C(=O)Nc2cc(OC(F)(F)F)ccc2O3)cc1O` [NCGC00373062, 2-(3-Hydroxy-4-methoxyphenyl)-8-(trifluoromethoxy)dibenzo[b,f][1,4]oxazepin-11(10H)-one], the Efficacy is given as −93.7.

In turn, `CN1CCN(c2cc(-c3ccc4c(c3)C(=O)Nc3cc(OC(F)(F)F)ccc3O4)ccn2)CC1` [NCGC00373063, 2-(2-(4-Methylpiperazin-1-yl)pyridin-4-yl)-8-(trifluoromethoxy)dibenzo[b,f][1,4]oxazepin-11(10H)-one] had an Efficacy of −107.9.

The molecule `O=C1Nc2cc(OC(F)(F)F)ccc2Oc2ccc(-c3cccc(S(=O)(=O)NCCO)c3)cc21` [NCGC00373064, N-(2-Hydroxyethyl)-3-(11-oxo-8-(trifluoromethoxy)-10,11-dihydrodibenzo[b,f][1,4]oxazepin-2-yl)benzenesulfonamide] gave an Efficacy of −103.3.

The molecule `CS(=O)(=O)Nc1cccc(-c2ccc3c(c2)C(N)=Nc2cc(OC(F)(F)F)ccc2O3)c1` [NCGC00373124, N-(3-(11-Amino-8-(trifluoromethoxy)dibenzo[b,f][1,4]oxazepin-2-yl)phenyl)methanesulfonamide] showed an Efficacy of −87.5.

On to `CN1C(=O)c2cc(-c3cccc(NS(C)(=O)=O)c3)ccc2Oc2ccc(OC(F)(F)F)cc21` [NCGC00384233], for which the Efficacy was −75.1.

Molecule `CN1C(=O)c2ccc(-c3cccc(NS(C)(=O)=O)c3)cc2Oc2ccc(OC(F)(F)F)cc21` [NCGC00384234] registered an Efficacy of −54.1.

In turn, `CS(=O)(=O)Nc1cccc(-c2ccc3c(c2)Oc2ccc(OC(F)(F)F)cc2NC3=O)c1` [NCGC00384235, N-(3-(11-Oxo-8-(trifluoromethoxy)-10,11-dihydrodibenzo[b,f][1,4]oxazepin-3-yl)phenyl)methanesulfonamide] had an Efficacy of −99.8.

For `CN1C(=O)c2ccc(-c3cccc(N(C)S(C)(=O)=O)c3)cc2Oc2ccc(OC(F)(F)F)cc21` [NCGC00384267], the Efficacy was −48.4.

The molecule `CN1C(=O)c2cc(-c3cccc(N(C)S(C)(=O)=O)c3)ccc2Oc2ccc(OC(F)(F)F)cc21` [NCGC00384286, N-Methyl-N-(3-(10-methyl-11-oxo-8-(trifluoromethoxy)-10,11-dihydrodibenzo[b,f][1,4]oxazepin-2-yl)phenyl)methanesulfonamide] yielded an Efficacy of −54.6.

Consider `CS(=O)(=O)Nc1cccc(-c2ccc3c(c2)Oc2ccc(OC(F)(F)F)cc2C(=O)N3)c1` [NCGC00384295, N-(3-(11-Oxo-2-(trifluoromethoxy)-10,11-dihydrodibenzo[b,f][1,4]oxazepin-7-yl)phenyl)methanesulfonamide], for which the Efficacy is listed as −80.6.

In the case of `CS(=O)(=O)Nc1cccc(-c2ccc3c(c2)Oc2cc(OC(F)(F)F)ccc2NC3=O)c1` [NCGC00384296, N-(3-(11-oxo-7-(trifluoromethoxy)-10,11-dihydrodibenzo[b,f][1,4]oxazepin-3-yl)phenyl)methanesulfonamide], the Efficacy was −73.3.

The molecule `N#CCCn1cc(-c2ccc3c(c2)C(=O)Nc2cc(OC(F)(F)F)ccc2O3)cn1` [NCGC00387293, 3-(4-(11-Oxo-8-(trifluoromethoxy)-10,11-dihydrodibenzo[b,f][1,4]oxazepin-2-yl)-1H-pyrazol-1-yl)propanenitrile] yielded an Efficacy of −84.4.

These data come from patent publication US11649218B2, “C-Abl tyrosine kinase inhibitory compound embodiments and methods of making and using the same” (The USA, as represented by the Secretary, Dept. of Health …, priority 2018, dated 2023).
